Test results taken from ChEMBL document CHEMBL1123019, “N-phenylpiperazine derivatives with hypocholesterolemic activity” (J Med Chem, 1985).

Experiments:
[1] = Dose required for 50% lethality after intraperitoneal administration in mice; format: ADME, organism-based; conditions: mouse, in vivo, ip
Rattus norvegicus [2] = assay: Dose required for 50% reduction of plasma cholesterol in rat when administered orally (200 mg/kg maximal administered dose); format: functional; conditions: po
Mus musculus [3] = assay: Dose required for 50% reduction of spontaneous locomotory activity in mice when administered orally; format: functional; conditions: po
Rattus norvegicus [4] = assay: Dose required for 50% reduction of plasma cholesterol in rat when administered orally.; format: functional; conditions: po
Rattus norvegicus [5] = assay: Percent reduction of total cholesterol level in plasma was evaluated at dose 30 mg/kg in rat; format: functional
Rattus norvegicus [6] = assay: Percent reduction of phospholipid level in plasma was evaluated 10 mg/kg in rat; format: functional
Rattus norvegicus [7] = assay: Percent reduction of total cholesterol level in plasma was evaluated at dose 10 mg/kg in rat; format: functional
Rattus norvegicus [8] = assay: Percent reduction of triglyceride level in plasma was evaluated 100 mg/kg in rat; format: functional
Rattus norvegicus [9] = assay: Percent increase in liver weight in plasma was evaluated 30 mg/kg in rat; format: functional
Rattus norvegicus [10] = assay: Percent increase in liver weight in plasma was evaluated 100 mg/kg in rat; format: functional
Rattus norvegicus [11] = assay: Percent reduction of total cholesterol level in plasma was evaluated at dose 100 mg/kg in rat; format: functional
Mus musculus [12] = assay: Dose required for 50% reduction of spontaneous locomotory activity in mice when administered orally (120 mg/kg is maximal dose administered); format: functional; conditions: po
Rattus norvegicus [13] = assay: Percent reduction of triglyceride level in plasma was evaluated 30 mg/kg in rat; format: functional
Rattus norvegicus [14] = assay: Percent reduction of total cholesterol level in plasma was evaluated at dose 3 mg/kg in rat; format: functional
Rattus norvegicus [15] = assay: Percent reduction of phospholipid level in plasma was evaluated 30 mg/kg in rat; format: functional
Rattus norvegicus [16] = assay: Percent reduction of phospholipid level in plasma was evaluated 100 mg/kg in rat; format: functional
Rattus norvegicus [17] = assay: Percent increase in liver weight in plasma was evaluated 10 mg/kg in rat; format: functional
Rattus norvegicus [18] = assay: Percent reduction of triglyceride level in plasma was evaluated 10 mg/kg in rat; format: functional
Rattus norvegicus [19] = assay: Percent increase in liver weight in plasma was evaluated 12.5 mg/kg in rat; format: functional
Rattus norvegicus [20] = assay: Percent reduction of phospholipid level in plasma was evaluated 25 mg/kg in rat; format: functional
Rattus norvegicus [21] = assay: Percent reduction of total cholesterol level in plasma was evaluated at dose 12.5 mg/kg in rat; format: functional
Rattus norvegicus [22] = assay: Percent reduction of triglyceride level in plasma was evaluated 300 mg/kg; in rat; format: functional
Rattus norvegicus [23] = assay: Percent reduction of triglyceride level in plasma was evaluated 25 mg/kg in rat; format: functional
Rattus norvegicus [24] = assay: Percent reduction of triglyceride level in plasma was evaluated 50 mg/kg in rat; format: functional
Rattus norvegicus [25] = assay: Percent increase in liver weight in plasma was evaluated 25 mg/kg in rat; format: functional
Rattus norvegicus [26] = assay: Percent reduction of total cholesterol level in plasma was evaluated at dose 25 mg/kg in rat; format: functional
Rattus norvegicus [27] = assay: Percent increase in liver weight in plasma was evaluated 50 mg/kg in rat; format: functional
Rattus norvegicus [28] = assay: Percent reduction of total cholesterol level in plasma was evaluated at dose 50 mg/kg in rat; format: functional
Rattus norvegicus [29] = assay: Percent reduction of triglyceride level in plasma was evaluated 12.5 mg/kg in rat; format: functional
Rattus norvegicus [30] = assay: Percent reduction of phospholipid level in plasma was evaluated 12.5 mg/kg in rat; format: functional
Rattus norvegicus [31] = assay: Percent increase in liver weight in plasma was evaluated 300 mg/kg in rat; format: functional
Rattus norvegicus [32] = assay: Percent reduction of total cholesterol level in plasma was evaluated at dose 300 mg/kg in rat; format: functional
Rattus norvegicus [33] = assay: Dose required for 50% reduction of plasma cholesterol in rat when administered orally.(100 mg/kg is maximal dose administered); format: functional; conditions: po
Mus musculus [34] = assay: Dose required for 50% reduction of spontaneous locomotory activity in mice when administered orally (100 mg/kg is maximal dose administered); format: functional; conditions: po
Mus musculus [35] = assay: Dose required for 50% reduction of spontaneous locomotory activity in mice when administered orally (200 mg/kg maximal administered dose); format: functional; conditions: po
Rattus norvegicus [36] = assay: Dose required for 50% reduction of plasma cholesterol in rat when administered orally (100 mg/kg maximal administered dose); format: functional; conditions: po
Rattus norvegicus [37] = assay: Dose required for 50% reduction of plasma cholesterol in rat when administered orally; format: functional; conditions: po
Mus musculus [38] = assay: Dose required for 50% reduction of spontaneous locomotory activity in mice when administered orally (200 mg/kg is maximal dose administered); format: functional; conditions: po
Rattus norvegicus [39] = assay: Dose required for 50% reduction of plasma cholesterol in rat when administered orally. (100 mg/kg is maximal dose administered); format: functional; conditions: po
Rattus norvegicus [40] = assay: Dose required for 50% reduction of plasma cholesterol in rat when administered orally (45 mg/kg maximal administered dose); format: functional; conditions: po
Rattus norvegicus [41] = assay: Percent reduction of triglyceride level in plasma was evaluated 300 mg/kg in rat; format: functional
Rattus norvegicus [42] = assay: Percent reduction of total cholesterol level in plasma was evaluated 100 mg/kg in rat; format: functional
Rattus norvegicus [43] = assay: Percent reduction of total cholesterol level in plasma was evaluated 300 mg/kg in rat; format: functional
Rattus norvegicus [44] = assay: Percent reduction of phospholipid level in plasma was evaluated 300 mg/kg in rat; format: functional

Which LD50 [1] does the source give for `CC(C)(C)NC(=O)OC(CCN1CCN(c2ccccc2)CC1)C(=O)c1ccc(F)cc1` (stereo unspecified) here?
Its LD50 is greater than 1000 mg/kg.

And the ED50 (Rattus norvegicus [2])?
The ED50 was 18 mg/kg.

What about the ED50 (Mus musculus [3]) of the same compound?
Its ED50 is 200 mg/kg.

With `CC(=O)OC(CCN1CCN(c2ccccc2)CC1)C(=O)c1ccc(F)cc1.O=C(O)/C=C/C(=O)O` (stereo unspecified) as the compound, how does the LD50 [1] read?
Its LD50 is 575 mg/kg.

And the ED50 (Rattus norvegicus [4])?
Its ED50 is 100 mg/kg.

And the ED50 (Mus musculus [3])?
Its ED50 is 56 mg/kg.

Which LD50 [1] does the source give for `Cl.O=c1oc(CCN2CCN(c3cccc(Cl)c3)CC2)c(-c2ccc(F)cc2)o1` here?
The LD50 was 500 mg/kg.

And the ED50 (Mus musculus [3])?
Its ED50 is 46 mg/kg.

What does the source list for `Cl.O=c1oc(CCN2CCN(c3ccccc3)CC2)c(-c2ccc(Cl)cc2)o1`?
LD50 [1]: 865 mg/kg; Reduction (Rattus norvegicus [5]): 72%; ED50 (Rattus norvegicus [4]): 11.3 mg/kg; Reduction (Rattus norvegicus [6]): 14%; Reduction (Rattus norvegicus [7]): 48%; Reduction (Rattus norvegicus [8]): 63%; Increase (Rattus norvegicus [9]): 13%; Increase (Rattus norvegicus [10]): 28%; Reduction (Rattus norvegicus [11]): 100%; ED50 (Mus musculus [12]): 31 mg/kg; Reduction (Rattus norvegicus [13]): 22%; Reduction (Rattus norvegicus [14]): 16%; Reduction (Rattus norvegicus [15]): 58%; Reduction (Rattus norvegicus [16]): 83%; Increase (Rattus norvegicus [17]): 3%; Reduction (Rattus norvegicus [18]): 15%

Which LD50 [1] does the source give for `Cc1ccc(-c2oc(=O)oc2CCN2CCN(c3ccccc3)CC2)cc1.Cl` here?
The LD50 was greater than 1000 mg/kg.

And the ED50 (Rattus norvegicus [4])?
Its ED50 is 80 mg/kg.

Which results are given for `Cl.O=c1oc(CCN2CCN(c3ccccc3)CC2)c(-c2ccc(F)cc2)o1`?
Increase (Rattus norvegicus [19]): 9%; LD50 [1]: 936 mg/kg; Reduction (Rattus norvegicus [20]): 52%; ED50 (Rattus norvegicus [4]): 18.6 mg/kg; Reduction (Rattus norvegicus [21]): 39%; Reduction (Rattus norvegicus [22]): 82%; Reduction (Rattus norvegicus [23]): 20%; Reduction (Rattus norvegicus [24]): 36%; Increase (Rattus norvegicus [25]): 12%; Reduction (Rattus norvegicus [26]): 57%; Reduction (Rattus norvegicus [8]): 27%; Increase (Rattus norvegicus [27]): 12%; Reduction (Rattus norvegicus [28]): 76%; Reduction (Rattus norvegicus [29]): 12%; Increase (Rattus norvegicus [10]): 33%; Reduction (Rattus norvegicus [11]): 85%; Reduction (Rattus norvegicus [30]): 19%; Increase (Rattus norvegicus [31]): 43%; Reduction (Rattus norvegicus [32]): 97%; ED50 (Mus musculus [3]): 100 mg/kg; Reduction (Rattus norvegicus [16]): 75%

With `Cl.O=c1oc(CCN2CCN(c3cc(Cl)cc(Cl)c3)CC2)c(-c2ccc(F)cc2)o1` as the compound, how does the LD50 [1] read?
Its LD50 is greater than 1000 mg/kg.

And the ED50 (Rattus norvegicus [33])?
Its ED50 is 5 mg/kg.

What about the ED50 (Mus musculus [34]) of the same compound?
Its ED50 is 16 mg/kg.

With `Cl.O=c1oc(CCN2CCN(c3ccccc3)CC2)c(-c2ccccc2)o1` as the compound, how does the LD50 [1] read?
The LD50 was 500 mg/kg.

What about the ED50 (Rattus norvegicus [4]) of the same compound?
The ED50 was 50 mg/kg.

And the ED50 (Mus musculus [3])?
The ED50 was 50 mg/kg.

Which results are given for `COc1cc(C(=O)OC(CCN2CCN(c3ccccc3)CC2)C(=O)c2ccc(F)cc2)cc(OC)c1OC.Cl` (stereo unspecified)?
LD50 [1]: > 1000 mg/kg; ED50 (Mus musculus [35]): 13 mg/kg; ED50 (Rattus norvegicus [36]): 21 mg/kg

Which LD50 [1] does the source give for `Cl.O=C(c1ccc(F)cc1)C(O)CCN1CCN(c2ccccc2)CC1` (stereo unspecified) here?
The LD50 was greater than 1000 mg/kg.

And the ED50 (Rattus norvegicus [4])?
Its ED50 is 50 mg/kg.

What about the ED50 (Mus musculus [3]) of the same compound?
Its ED50 is 35 mg/kg.

For `Cl.O=c1oc(CCN2CCN(c3cccc(C(F)(F)F)c3)CC2)c(-c2ccc(F)cc2)o1`, which LD50 [1] is on record?
Its LD50 is 1000 mg/kg.

And the ED50 (Mus musculus [3])?
Its ED50 is 200 mg/kg.

With `CSc1ccc(-c2oc(=O)oc2CCN2CCN(c3ccccc3)CC2)cc1.Cl` as the compound, how does the LD50 [1] read?
The LD50 was greater than 1000 mg/kg.

And the ED50 (Rattus norvegicus [33])?
The ED50 was 15 mg/kg.

And the ED50 (Mus musculus [3])?
The ED50 was 200 mg/kg.

For `Cl.O=c1oc(CCCN2CCN(c3ccccc3)CC2)c(-c2ccc(F)cc2)o1`, which ED50 (Rattus norvegicus [37]) is on record?
The ED50 was 50 mg/kg.

What does the source list for `Cl.O=c1oc(CCN2CCN(c3ccccc3)CC2)c(-c2ccc(-c3ccccc3)cc2)o1`?
LD50 [1]: > 1000 mg/kg; ED50 (Mus musculus [38]): 29 mg/kg

Which ED50 (Rattus norvegicus [39]) does the source give for `Cl.O=c1oc(CCN2CCN(c3ccc(Cl)c(Cl)c3)CC2)c(-c2ccc(F)cc2)o1` here?
The ED50 was 20 mg/kg.

And the ED50 (Mus musculus [3])?
Its ED50 is 120 mg/kg.

For `Cl.O=c1oc(CCN2CCN(c3ccc(Cl)cc3)CC2)c(-c2ccc(Cl)cc2)o1`, which LD50 [1] is on record?
Its LD50 is greater than 1000 mg/kg.

And the ED50 (Rattus norvegicus [33])?
The ED50 was 8 mg/kg.

Which results are given for `COc1ccc(-c2oc(=O)oc2CCN2CCN(c3ccccc3)CC2)cc1.Cl`?
LD50 [1]: > 1000 mg/kg; ED50 (Rattus norvegicus [33]): 25 mg/kg; ED50 (Mus musculus [3]): 75 mg/kg

For `COc1ccccc1N1CCN(CCc2oc(=O)oc2-c2ccc(F)cc2)CC1.Cl`, which LD50 [1] is on record?
Its LD50 is 350 mg/kg.

And the ED50 (Rattus norvegicus [39])?
Its ED50 is 25 mg/kg.

And the ED50 (Mus musculus [3])?
The ED50 was 47 mg/kg.

Which LD50 [1] does the source give for `CN(C)C(=O)OC(CCN1CCN(c2ccccc2)CC1)C(=O)c1ccc(F)cc1.Cl` (stereo unspecified) here?
The LD50 was 150 mg/kg.

What about the ED50 (Rattus norvegicus [40]) of the same compound?
The ED50 was 35 mg/kg.

And the ED50 (Mus musculus [3])?
The ED50 was 30 mg/kg.

For `CCOC(=O)C(C)(C)Oc1ccc(Cl)cc1` [CLOFIBRATE], which Reduction (Rattus norvegicus [41]) is on record?
Its Reduction is -39%.

What about the Reduction (Rattus norvegicus [42]) of the same compound?
The Reduction was 46%.

What about the Reduction (Rattus norvegicus [5]) of the same compound?
Its Reduction is 31%.

What about the Reduction (Rattus norvegicus [43]) of the same compound?
The Reduction was 43%.

What about the Reduction (Rattus norvegicus [8]) of the same compound?
Its Reduction is 7%.

And the Reduction (Rattus norvegicus [44])?
Its Reduction is -11%.

And the Increase (Rattus norvegicus [9])?
Its Increase is 3%.

What about the Reduction (Rattus norvegicus [10]) of the same compound?
Its Reduction is 21%.

And the Increase (Rattus norvegicus [31])?
Its Increase is 51%.

And the Reduction (Rattus norvegicus [13])?
Its Reduction is 20%.

And the Reduction (Rattus norvegicus [16])?
Its Reduction is 23%.
